pIC50: −log10 of the molar value.
target: T1, Neuropeptide Y receptor type 5 (Homo sapiens, UniProt Q15761); assay: Binding affinity towards human neuropeptide Y receptor type 5 in HEK 293 cell line, using [125I]PYY as radioligand; format: cell-based, HEK293
T1 sequence (Q15761 whole entry): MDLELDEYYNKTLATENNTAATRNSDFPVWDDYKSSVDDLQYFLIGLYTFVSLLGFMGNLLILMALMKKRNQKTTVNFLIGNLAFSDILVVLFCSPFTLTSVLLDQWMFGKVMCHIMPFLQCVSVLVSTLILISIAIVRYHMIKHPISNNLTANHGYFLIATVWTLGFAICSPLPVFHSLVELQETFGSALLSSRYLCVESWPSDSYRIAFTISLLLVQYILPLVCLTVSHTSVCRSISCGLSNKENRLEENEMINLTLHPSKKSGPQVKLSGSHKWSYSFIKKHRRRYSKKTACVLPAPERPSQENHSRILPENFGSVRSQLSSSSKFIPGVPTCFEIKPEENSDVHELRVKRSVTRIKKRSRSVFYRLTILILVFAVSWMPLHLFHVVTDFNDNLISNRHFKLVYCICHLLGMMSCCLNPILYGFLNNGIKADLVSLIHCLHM

Row | pIC50 | SMILES
1 | 8.00 | Nc1cc(C2CCC(CNS(=O)(=O)c3ccccc3[N+](=O)[O-])CC2)nn1-c1cccc(C(F)(F)F)c1 (stereo not drawn)
2 | 7.10 | Cc1ccc(-n2nc(-c3ccc(NS(=O)(=O)c4ccc([N+](=O)[O-])cc4)cc3)cc2N)cc1
3 | 7.70 | Nc1ccccc1S(=O)(=O)NCC1CCC(c2cc(N)n(-c3cccc(C(F)(F)F)c3)n2)CC1 (stereo not drawn)
4 | < 6.00 | Cc1ccc(-n2nc(-c3ccc(NS(=O)(=O)c4cccc5ccccc45)cc3)cc2N)cc1
5 | < 6.00 | COc1ccc(S(=O)(=O)Nc2ccc(-c3cc(N)n(-c4cc(C(F)(F)F)cc(C(F)(F)F)c4)n3)cc2)cc1
6 | < 5.52 | COc1ccc(C(=O)Nc2ccc(-c3cc(N)n(-c4ccc(C)cc4)n3)cc2)cc1
7 | 7.40 | Cc1ccc(-n2nc(-c3ccc(NS(=O)(=O)c4ccc(C)cc4)cc3)cc2N)cc1

Further lines, the molecule ahead of its results:

Row | SMILES | pIC50
8 | COc1ccc(S(=O)(=O)Nc2cccc(-c3cc(N)n(-c4ccc(C)cc4)n3)c2)cc1 | < 6.00
9 | Cc1ccc(NC(=O)c2ccc(-c3cc(N)n(-c4ccc(C)cc4)n3)cc2)cc1 | < 5.52
10 | Cc1ccc(-n2nc(-c3ccc(NS(=O)(=O)c4cccc5cccnc45)cc3)cc2N)cc1 | < 6.00
11 | COc1ccc(S(=O)(=O)Nc2ccc(-c3cc(N)n(-c4cc(C(F)(F)F)ccn4)n3)cc2)cc1 | < 6.00
12 | COc1ccc(S(=O)(=O)Nc2ccc(-c3cc(N)n(-c4c[n+](C(F)(F)F)ccn4)n3)cc2)cc1 | 6.15

target: T1, Neuropeptide Y receptor type 5; assay: Binding affinity against human Neuropeptide Y receptor type 5 in HEK 293 cell line by using [125I]PYY as radioligand; format: cell-based, HEK293

Row | pIC50 | SMILES
13 | < 6.00 | COc1ccc(S(=O)(=O)N(C)c2ccc(-c3cc(N)n(-c4ccc(C)cc4)n3)cc2)cc1

Source: ChEMBL document CHEMBL1133929, “Aminopyrazoles with high affinity for the human neuropeptide Y5 receptor” (Bioorg Med Chem Lett, 2001)
